Where [1] appears, read: in 2,2,4-trimethylpentane, 298.2 K.
Setting [2] is: in 2,2,4-trimethylpentane, 308.2 K.
The mark [3] stands for this setting: in 2,2,4-trimethylpentane, 318.2 K.

With `c1ccc2cc3ccccc3cc2c1`, the solubility (mole fraction) is, setting by setting: under setting [1], 0.00119; under setting [2], 0.00152; under setting [3], 0.00177; (in ethanol, 298.2 K) 0.000505; (in ethanol, 308.2 K) 0.000665; (in ethanol, 318.2 K) 0.00078.
As for `c1ccc2c(c1)ccc1ccccc12`, the solubility (mole fraction) by setting is: under setting [1], 0.0246; under setting [2], 0.0378; under setting [3], 0.0484; (in ethanol, 298.2 K) 0.0119; (in ethanol, 308.2 K) 0.0159; (in ethanol, 318.2 K) 0.019.

In general, solubility (mole fraction) refers to the moles of solute divided by all moles in the saturated solution.

(Values after BigSolDB 2.1.)
